system: IL-1β production in PMA-differentiated THP-1 cells; assay: IL-1β production in PMA-differentiated THP-1 cells stimulated with gramicidin (hTHP-1 assay containing 2% fetal bovine serum); assay type: cell-based, human; conditions: Homo sapiens, THP-1, Table B1; 2% fetal bovine serum; cells printed as numeric bound; read-out: hTHP-1 IC50 (Average IC50 of compounds in hTHP-1 assay)
Method: Procedure 1: IL-1β Production in PMA-Differentiated THP-1 Cells Stimulated with Gramicidin.
THP-1 cells were purchased from the American Type Culture Collection and sub-cultured according to instructions from the supplier. Cells were cultured in complete RPMI 1640 (containing 10% heat inactivated FBS, penicillin (100 units/ml) and streptomycin (100 μg/ml)), and maintained in log phase prior to experimental setup. Prior to the experiment, compounds were dissolved in dimethyl sulfoxide (DMSO) to generate a 30 mM stock. The compound stock was first pre-diluted in DMSO to 3, 0.34, 0.042 and 0.0083 mM intermediate concentrations and subsequently spotted using Echo550 liquid handler into an empty 384-well assay plate to achieve desired final concentration (e.g. 100, 33, 11, 3.7, 1.2, 0.41, 0.14, 0.046, 0.015, 0.0051, 0.0017 μM). DMSO was backfilled in the plate to achieve a final DMSO assay concentration of 0.37%. The plate was then sealed and stored at room temperature until required.
THP-1 cells were treated with PMA (Phorbol 12-myristate 13-acetate) (20 ng/ml) for 16-18 hours. On the day of the experiment the media was removed and adherent cells were detached with trypsin for 5 minutes. Cells were then harvested, washed with complete RPMI 1640, spun down, and resuspended in RPMI 1640 (containing 2% heat inactivated FBS, penicillin (100 units/ml) and streptomycin (100 μg/ml). The cells were plated in the 384-well assay plate containing the spotted compounds at a density of 50,000 cells/well (final assay volume 50 μl). Cells were incubated with compounds for 1 hour and then stimulated with gramicidin (5 μM) (Enzo) for 2 hours. Plates were then centrifuged at 340 g for 5 min. Cell free supernatant (40 μL) was collected using a 96-channel PlateMaster (Gilson) and the production of IL-1β was evaluated by HTRF (cisbio). The plates were incubated for 18 h at 4° C. and read using the preset HTRF program (donor emission at 620 nm, acceptor emission at 668 nm) of the SpectraMax i3x spectrophotometer (Molecular Devices, software SoftMax 6). A vehicle only control and a dose titration of CRID3 (100-0.0017 μM) were run concurrently with each experiment.
Procedure 2: IL-1β Production in PMA-Differentiated THP-1 Cells Stimulated with Gramicidin.
THP-1 cells were purchased from the American Type Culture Collection and sub-cultured according to instructions from the supplier. Prior to experiments, cells were cultured in complete RPMI 1640 (containing 10% heat inactivated FBS, penicillin (100 units/ml) and streptomycin (100 μg/ml)), and maintained in log phase prior to experimental setup. Prior to the experiment THP-1 were treated with PMA (Phorbol 12-myristate 13-acetate) (20 ng/ml) for 16-18 hours. Compounds were dissolved in dimethyl sulfoxide (DMSO) to generate a 30 mM stock. On the day of the experiment the media was removed and adherent cells were detached with trypsin for 5 minutes. Cells were then harvested, washed with complete RPMI 1640, spun down, resuspended in RPMI 1640 (containing 2% heat inactivated FBS, penicillin (100 units/ml) and streptomycin (100 μg/ml). The cells were plated in a 384-well plate at a density of 50,000 cells/well (final assay volume 50 μl). Compounds were first dissolved in assay medium to obtain a 5× top concentration of 500 μM. 10 step dilutions (1:3) were then undertaken in assay medium containing 1.67% DMSO. 5× compound solutions were added to the culture medium to achieve desired final concentration (e.g. 100, 33, 11, 3.7, 1.2, 0.41, 0.14, 0.046, 0.015, 0.0051, 0.0017 μM). Final DMSO concentration was at 0.37%. Cells were incubated with compounds for 1 hour and then stimulated with gramicidin (5 μM) (Enzo) for 2 hours. Plates were then centrifuged at 340 g for 5 min. Cell free supernatant (40 μL) was collected using a 96-channel PlateMaster (Gilson) and the production of IL-1β was evaluated by HTRF (cisbio). A vehicle only control and a dose titration of CRID3 (100-0.0017 μM) were run concurrently with each experiment. […]

| SMILES | IC50 [nM] |
| --- | --- |
| CC(C)c1cc2c(cnn2C)c(C(C)C)c1CC(=O)N=S(N)(=O)c1ncc(C(C)(C)O)s1 (centres unmarked) [Compound 1341] | > 30000 |
| CC(C)c1cc2c(c(C(C)C)c1CC(=O)N=[S@@](N)(=O)c1cnc(C(C)(C)O)s1)COC2(C)C [Example 340, (R)-N-(amino(2-(2-hydroxypropan-2-yl)thiazol-5-yl)(oxo)-λ^6-sulfaneylidene)-2-(4,6-diisopropyl-1,1-dimethyl-1,3-dihydroisobenzofuran-5-yl)acetamide] | > 30000 |
| CC(C)c1ncnc(C(C)C)c1CC(=O)N=S(N)(=O)c1cnc(C(C)(C)O)s1 (centres unmarked) [Compound 260] | > 30000 |

same assay, conditions: Homo sapiens, THP-1, Table B1; 2% fetal bovine serum; class symbols; read-out: hTHP-1 IC50 (Average IC50 of compounds in hTHP-1 assay)

| SMILES | IC50 [nM] |
| --- | --- |
| CC(C)c1cc(-c2ccc3c(c2)COCC3)cc(C(C)C)c1CC(=O)N=S(N)(=O)c1cnc(C(C)(C)O)s1 (centres unmarked) [Example 97, N-(amino(2-(2-hydroxypropan-2-yl)thiazol-5-yl)(oxo)-λ^6-sulfaneylidene)-2-(4-(isochroman-7-yl)-2,6-diisopropylphenyl)acetamide] | 200 to 1000 |
| CC(C)c1ccc(F)c(C(C)C)c1CC(=O)N=[S@@](N)(=O)c1cc(C(C)(C)O)cs1 [compound 88, (R)-N-(amino(4-(2-hydroxypropan-2-yl)thiophen-2-yl)(oxo)-λ^6-sulfanylidene)-2-(3-fluoro-2,6-diisopropylphenyl)acetamide] | 200 to 1000 |
| COCc1cc(C(C)C)c(CC(=O)N=S(N)(=O)c2ncc(C(C)(C)O)s2)c(C(C)C)n1 (single isomer, unassigned) [Example 274, (R) or (S)-N-(amino (5-(2-hydroxypropan-2-yl)thiazol-2-yl)(oxo)-λ^6-sulfaneylidene)-2-(2,4-diisopropyl-6-(methoxymethyl)pyridin-3-yl)acetamide] | 1000 to 5000 |
| CC(C)c1cc2c(c(C(C)C)c1CC(=O)N=S(N)(=O)c1cnc(C(C)(O)CO)s1)COC2 (single isomer, unassigned) [Example 338] | 200 to 1000 |
| CC(C)c1nc(-c2cccc(C(F)(F)F)c2)c(F)c(C(C)C)c1CC(=O)N=[S@@](N)(=O)c1cnc(C(C)(C)O)s1 [compound 89, (R)-N-(amino(2-(2-hydroxypropan-2-yl)thiazol-5-yl)(oxo)-λ^6-sulfanylidene)-2-(5-fluoro-2,4-diisopropyl-6-(3-(trifluoromethyl)phenyl)pyridin-3-yl)acetamide] | 200 to 1000 |

same assay, conditions: Homo sapiens, THP-1, Table B2; 2% fetal bovine serum; class symbols; read-out: hTHP-1 IC50 (Average IC50 of compounds in hTHP-1 assay)

| SMILES | IC50 [nM] |
| --- | --- |
| CC(C)c1cc(C#N)cc(C(C)C)c1CC(=O)N=[S@@](=O)(NC#N)c1ncc(C(C)(C)O)s1 [Example 364, (R)-N-(cyanamido(5-(2-hydroxypropan-2-yl)thiazol-2-yl) (oxo)-λ^6-sulfaneylidene)-2-(4-cyano-2,6-diisopropylphenyl) acetamide] | 200 to 1000 |

same assay, conditions: Table B1; 2% fetal bovine serum; class symbols; read-out: hTHP-1 IC50 (Average IC50 of compounds in hTHP-1 assay)

| SMILES | IC50 [nM] |
| --- | --- |
| CC(C)c1cc(C#N)c(F)c(C(C)C)c1CC(=O)N=S(N)(=O)c1nc(C(C)(C)O)cs1 (single isomer, unassigned) [Example 190, (R) or (S)-N-(amino(4-(2-hydroxypropan-2-yl)thiazol-2-yl)(oxo)-λ^6-sulfaneylidene)-2-(4-cyano-3-fluoro-2,6-diisopropylphenyl) acetamide] | 40 to 200 |
| CC(C)c1cc(-c2ccc3c(c2)COCC3)cc(C(C)C)c1CC(=O)N=S(N)(=O)c1cnc(C(C)(C)O)s1 (single isomer, unassigned) [Example 171, (R) or (S)-N-(amino(2-(2-hydroxypropan-2-yl)thiazol-5-yl)(oxo)-λ^6-sulfaneylidene)-2-(4-(isochroman-7-yl)-2,6-diisopropylphenyl) acetamide] | 200 to 1000 |
| CC(C)c1cc(F)cc(C(C)C)c1CC(=O)N=S(N)(=O)c1sc(C(C)(C)O)cc1F (centres unmarked) [Example 17, 2-(4-fluoro-2,6-diisopropylphenyl)-N-(3-fluoro-5-(2-hydroxypropan-2-yl)thiophen-2-ylsulfonimidoyl)acetamide] | 8 to 40 |
| CC(C)c1ccc(C#N)c(C(C)C)c1CC(=O)N=S(N)(=O)c1nc(C(C)(C)O)cs1 (single isomer, unassigned) [Example 179, (R) or (S)-N-(amino(4-(2-hydroxypropan-2-yl)thiazol-2-yl)(oxo)-λ^6-sulfaneylidene)-2-(3-cyano-2,6-diisopropylphenyl) acetamide] | 200 to 1000 |
| CC(C)c1cc2c(c(C(C)C)c1CC(=O)N=S(N)(=O)c1cc(C(C)(C)O)cs1)COC2 (single isomer, unassigned) [Example 216, (R) or (S)-N-(amino (4-(2-hydroxypropan-2-yl)thiophen-2-yl)(oxo)-λ^6-sulfaneylidene)-2-(4,6-diisopropyl-1,3-dihydroiso-benzofuran-5-yl)acetamide] | 200 to 1000 |
| COCc1cc(C(C)C)c(CC(=O)N=S(N)(=O)c2ncc(C(C)(C)O)s2)c(C(C)C)c1 (single isomer, unassigned) [Example 186, (S) or (R)-N-(amino(5-(2-hydroxypropan-2-yl)thiazol-2-yl)(oxo)-λ^6-sulfaneylidene)-2-(2,6-diisopropyl-4-(methoxymethyl)phenyl)acetamide] | 5000 to 30000 |
| CC(C)c1cc(OC(F)F)cc(C(C)C)c1CC(=O)N=S(N)(=O)c1sc(C(C)(C)O)cc1F (single isomer, unassigned) [Example 77, (R)- or (S)-(4-(difluoromethoxy)-2,6-diisopropylphenyl)-N-(3-fluoro-5-(2-hydroxypropan-2-yl)thiophen-2-ylsulfonimidoyl)acetamide] | 1000 to 5000 |
| CC(C)c1cc(C#N)c(F)c(C(C)C)c1CC(=O)N=S(N)(=O)c1cnc(C(C)(O)CO)s1 (single isomer, unassigned) [Example 334, (S, S) or (R, S)-N-(amino(2-(1,2-dihydroxypropan-2-yl)thiazol-5-yl)(oxo)-λ^6-sulfaneylidene)-2-(4-cyano-3-fluoro-2,6-diisopropylphenyl) acetamide] | 5000 to 30000 |
| CC(C)c1ncc(F)c(C(C)C)c1CC(=O)N=S(N)(=O)c1sc(C(C)(C)O)cc1F (single isomer, unassigned) [Example 210, (S) or (R)-N-(amino (3-fluoro-5-(2-hydroxypropan-2-yl)thiophen-2-yl)(oxo)-λ^6-sulfaneylidene)-2-(5-fluoro-2,4-diisopropylpyridin-3-yl)acetamide] | 5000 to 30000 |
| CC(C)c1cc(C#N)c(F)c(C(C)C)c1CC(=O)N=S(N)(=O)c1cnc(C(C)(O)CO)s1 (single isomer, unassigned) [Example 337, (S, R) or (R, R)-N-(amino(2-(1,2-dihydroxypropan-2-yl)thiazol-5-yl)(oxo)-λ^6-sulfaneylidene)-2-(4-cyano-3-fluoro-2,6-diisopropylphenyl) acetamide] | 8 to 40 |
| CC(C)c1cc(-c2ccc3c(c2)OC(F)(F)O3)cc(C(C)C)c1CC(=O)N=S(N)(=O)c1ncc(C(C)(C)O)s1 (single isomer, unassigned) [Example 166, (R) or (S)-N-(amino(5-(2-hydroxypropan-2-yl)thiazol-2-yl)(oxo)-λ^6-sulfaneylidene)-2-(4-(2,2-difluorobenzo[d] [1,3]dioxol-5-yl)-2,6-diisopropylphenyl) acetamide] | 40 to 200 |
